The subject of one test is oncovirus. Description: Compound was evaluated for the antiviral activity against model oncovirus SV 40; A - Marginal activity was found. In kind it is functional.
The test system of test [1] is Human immunodeficiency virus 1. Description: Inhibitory concentration against HIV-1 was determined. The format is functional, organism-based.
Test [2] deals with Human immunodeficiency virus 1. Description: Effective concentration against HIV-1 was determined. The format is functional, organism-based.
Test [3] concerns Human immunodeficiency virus 1. Description: Compound was evaluated for the inhibitory activity against HIV-1; IA - Inactive. In kind it is functional, organism-based.

Calls of active or inactive are those of the source. The rule behind the calls is not given here. A value given as a limit tells only on which side of the number the result lay.

The source of these data is ChEMBL document CHEMBL1126389, “Synthesis and anti-HIV activity of 3-deoxy-3-(N-hydroxyamino) analogues of nucleosides” (Bioorg Med Chem Lett, 1992).

On to `Cc1cn([C@H]2C[C@](C#N)(N(C)O)[C@@H](CO[Si](C)(C)C(C)(C)C)O2)c(=O)[nH]c1=O`, for which, in the test on oncovirus, the Activity result is “A”.

Consider `Cc1cn(C2CC(N(C)O)C(CO)O2)c(=O)[nH]c1=O` (stereo unspecified), for which the Activity entry in the test on oncovirus is “A”.

In turn, `Cc1cn(C2CC3C(COCN3O)O2)c(=O)[nH]c1=O` (stereo unspecified) yielded an IC50 in test [1] greater than 210000 nM. The molecule also returned an EC50 in test [2] of 2500 nM.

Consider `Cc1cn(C2CC(N(O)Cc3ccccc3)C(CO)O2)c(=O)[nH]c1=O` (stereo unspecified), for which, in test [3], the result was inactive. For the same molecule, the Activity entry with oncovirus is “A”.
